The record followed here is US8623998B2, “Method of production of polyanionic drug-carrier conjugates” (priority 2008, dated 2014).

In the assay the test system is P388 leukemia. The experiment in a line: Survival of mice with P388 leukemia treated with methotrexate-fibrinogen conjugate. To be noted: dosage of methotrexate 40 mg/kg. In kind it is in vivo. Here is the method:
Table of survival of mice with P388 leukemia treated with methotrexate-fibrinogen conjugate. Dosage of methotrexate 40 mg/kg.
S—number of mice with no leukemia detected on the 60th day of the experiment (mice considered cured) L—number of mice which died before the control ILS—ILS increase of life span Conjugates F-MTX were obtained in the reaction of fibrinogen glycation with fructose. Conjugates G-MTX were obtained in the reaction of fibrinogen glycation with glucose. Glycation was carried out according to the high temperature procedure.
Table, of survival of, mice with P388 leukemia treated with methotrexate fibrinogen conjugate. Dosage of methotrexate 40 mg/kg.

As for `CN(Cc1cnc2nc(N)nc(N)c2n1)c1ccc(C(=O)N[C@@H](CCC(=O)O)C(=O)O)cc1` [Methotrexat, methotrexate], the “ILS (%) increase of life span” value came to 36%. Moreover, the Mean survival rate (experiment ended on 60th day) came to 15.0.
